Counter-ions that a name gives are not always drawn.
| melting point [°C] | Compound |
| --- | --- |
| 192 to 195 | CCCCc1ccc(C(=O)N[C@@H](CNC(=O)c2ccc(-n3cncn3)cc2)C(=O)N[C@@H](CC(C)C)B(O)O)cc1 (as salt: hydrochloride) [E.5.40, Boronic acid, [(1R)-1-[[(2S)-3-(4-(1H-1,2,4-triazol-1-yl)benzoylamide)]-2-[(4-butylbenzoyl)amino]-1H-oxopropyl]amino]-3-methylbutyl] hydrochloride] |
| 150 to 152 | CCCCc1ccc(C(=O)N[C@@H](CNC(=O)Cc2ccc(OC)c(OC)c2)C(=O)N[C@@H](CC(C)C)B(O)O)cc1 [E.5.15, Boronic acid, [(1R)-1-[[(2S)-3-[(3,4-dimethoxyphenyl)acetylamino]-2-[(4-butylbenzoylamino)]-1-oxopropyl]amino]-3-methylbutyl]] |
| 170 to 173 | CCCCc1ccc(C(=O)N[C@@H](CNC(=O)C2CCN(S(C)(=O)=O)CC2)C(=O)N[C@@H](CC(C)C)B(O)O)cc1 [E.5.38, Boronic acid, [(1R)-1-[[(2S)-3-(1-methanesulfonylpiperidine-4-carbonylamino)-2-[(4-butylbenzoylamino)]-1-oxopropyl]amino]-3-methylbutyl]] |

More lines, now with the values behind:

| Compound | melting point [°C] |
| --- | --- |
| CCCCc1ccc(C(=O)N[C@@H](CNC(=O)c2ccc(-c3ccccc3)cc2)C(=O)N[C@@H](CC(C)C)B2O[C@@H]3C[C@@H]4C[C@@H](C4(C)C)[C@]3(C)O2)cc1 [D.24.32, 4-butylbenzamide, N-[(1S)-1-[[[(1R)-1-[(3aS,4S,6S,7aR)-hexahydro-3a,5,5-trimethyl-4,6-methano-1,3,2-benzodioxaborol-2-yl]-3-methylbutyl]amino]carbonyl]-2-(4-phenylbenzoylamino)ethyl]-] | 195 to 198 |
| CC(C)C[C@H](NC(=O)[C@H](CNC(=O)OCc1ccccc1)NC(=O)c1ccc(Oc2ccccc2)cc1)B1O[C@@H]2C[C@@H]3C[C@@H](C3(C)C)[C@]2(C)O1 [D.16.9] | 100 to 103 |
| CCCCc1ccc(C(=O)N[C@@H](CNC(=O)C2CCN(S(C)(=O)=O)CC2)C(=O)N[C@@H](CC(C)C)B2O[C@@H]3C[C@@H]4C[C@@H](C4(C)C)[C@]3(C)O2)cc1 [D.24.36, 4-butylbenzamide, N-[(1S)-1-[[[(1R)-1-[(3aS,aS,6S,7aR)-hexahydro-3a,5,5-trimethyl-4,6-methano-1,3,2-benzodioxaborol-2-yl-]-3-methylbutyl]amino]carbonyl]-2-(1-methanesulfonyl-piperidine-4-carbonylamino)ethyl]-] | 170 to 172 |
| CC(C)C[C@H](NC(=O)[C@H](CNS(=O)(=O)c1ccc(F)cc1)NC(=O)c1ccc(Oc2ccccc2)cc1)B1O[C@@H]2C[C@@H]3C[C@@H](C3(C)C)[C@]2(C)O1 [D.24.29, 4-phenoxybenzamide, N-[(1S)-1-[[[(1R)-1-[(3aS,4S,6S,7aR)-hexahydro-3a,5,5-trimethyl-4,6-methano-1,3,2-benzodioxaborol-2-yl]-3-methylbutyl]amino]carbonyl]-2-[4-fluoro-benzenesulfonammide]ethyl]-] | 90 to 93 |
| CCCCc1ccc(C(=O)N[C@@H](CNC(=O)C#Cc2ccccc2)C(=O)N[C@@H](CC(C)C)B2O[C@@H]3C[C@@H]4C[C@@H](C4(C)C)[C@]3(C)O2)cc1 [D.24.33, 4-butylbenzamide, N-[(1S)-1-[[[(1R)-1-[(3aS,4S,6S,7aR)-hexahydro-3a,5,5-trimethyl-4,6-methano-1,3,2-benzodioxaborol-2-yl]-3-methylbutyl]amino]carbonyl]-2-(3-phenylpropynoylamino)ethyl]-] | 118 to 120 |
| CCCCc1ccc(C(=O)N[C@@H](CNC(=O)c2cccn2C)C(=O)N[C@@H](CC(C)C)B2O[C@@H]3C[C@@H]4C[C@@H](C4(C)C)[C@]3(C)O2)cc1 [D.24.13] | 88 to 92 |

Reference: patent US8546608B2, “Proteasome inhibitors and methods of using the same” (Cephalon, Inc., priority 2003, dated 2013)
